US9796672B2, “Isoindoline compositions and methods for treating neurodegenerative disease” (Cognition Therapeutics, Inc., priority 2014, dated 2017)

Molecular target: Sigma-2 receptor
Test: Sigma-2 receptor competitive radioligand binding assay
Set-up: species or system rat
Settings: read-out: Sigma-2 Receptor Affinity, Ki
Procedure: Radioligand binding assays for Sigma-1 receptors and Sigma-2 receptors were carried out by a commercial contract research organization. For Sigma-1 binding, various concentrations of test compounds from 100 μM to 1 nM were used to displace 8 nM [^3H](+)pentazocine from endogenous receptors on Jurkat cell membranes (Ganapathy M E et al. 1991, J Pharmacol. Exp. Ther. 289:251-260). 10 μM Haloperidol was used to define non-specific binding. For Sigma-2 receptors various concentrations of test compounds from 100 μM to 1 nM were used to displace 5 nM [^3H] […] (Bowen W D, et al. 1993, Mol. Neuropharmcol 3:117-126). 10 μM Haloperidol was used to define non-specific binding. Reactions were terminated by rapid filtration through Whatman GF/C filters using a Brandel 12R cell harvester followed by two washes with ice-cold buffer. Radioactivity on the dried filter discs was measured using a liquid scintillation analyzer (Tri-Carb 2900TR; PerkinElmer Life and Analytical Sciences). The displacement curves were plotted and the Ki values of the test ligands for the receptor subtypes were determined using GraphPad Prism (GraphPad Software Inc., San Diego, Calif.). The percentage specific binding was determined by dividing the difference between total bound (disintegrations per minute) and nonspecific bound (disintegrations per minute) by the total bound (disintegrations per minute).
The affinity of candidate sigma-2 ligand compounds at sigma-1 and sigma-2 receptors was also determined by displacement of different known labeled sigma-2 or sigma-1 ligands. Filtration assays were conducted according the previously published procedure (Xu, et al., 2005). Test compounds were dissolved in N,N-Dimethylformamide (DMF), dimethyl sulfoxide (DMSO) or ethanol and then diluted in 50 mM Tris-HCl pH 7.4 buffer containing 150 mM NaCl and 100 mM EDTA. Membrane homogenates were made from guinea pig brain for sigma-1 binding assay and rat liver for sigma-2 binding assay. Membrane homogenates were diluted with 50 mM Tris-HCl buffer, pH 8.0 and incubated at 25° C. in a total volume of 150 uL in 96 well plates with the radioligand and test compounds with concentrations ranging from 0.1 nM to 10 uM. After incubation was completed, the reactions were terminated by the addition of 150 uL of ice-cold wash buffer (10 mM Tris HCl, 150 mM NaCl, pH 7.4) using a 96 channel transfer pipette (Fisher Scientific, Pittsburgh, Pa.) and the samples harvested and filtered rapidly through 96 well fiber glass filter plate (Millipore, Billerica, Mass.) that had been presoaked with 100 uL of 50 mM Tris-HCl buffer. Each filter was washed four times with 200 uL of ice-cold wash buffer (10 mM Tris-HCl, 150 mM NaCl, pH 7.4). A Wallac 1450 MicroBeta liquid scintillation counter (Perkin Elmer, Boston, Mass.) was used to quantitate the bound radioactivity.
Nonspecific binding was determined from samples that contained 10 uM of cold haloperidol.
The binding affinity, Ki values was calculated using the method of Cheng and Prusoff.

Row | Ki [µM] | Structure (SMILES)
1 | 0.74 | COc1cc(CCC(C)(C)N2Cc3ccc(N4CCNCC4)cc3C2)ccc1O [compound 111]

Tested on: not listed separately
Test: Mouse liver microsome (MLM) stability
Type: in vitro ADME
Settings: mouse liver microsomes
Procedure: A first pharmacokinetic study was performed in microsomes of mice mouse liver microsomes, MLM) by a commercial contract research organization. The studies were performed according to Obach, R. S et al. (1997) J. Pharmacol. Exp. Ther., 283: 46-58, which is incorporated herein by reference.

Row | Structure (SMILES) | Mouse liver microsomes, MLM t½ [min]
2 | COc1cc(CC[C@@H](C)N2Cc3cc4c(cc3C2)OCO4)ccc1O [compound 6] | 20

Same assay, conditions: mouse, microsomes

Row | Mouse liver microsomes, MLM t½ [min] | Structure (SMILES)
3 | 9 | CC(C)(CCc1ccc(F)cc1)N1Cc2cccc(F)c2C1 [compound 33]
4 | 142 | COc1cc(CCC(C)(C)N2Cc3ccc(S(C)(=O)=O)cc3C2)ccc1O [compound 77]
5 | 17 | CC(C)COc1cc(CCC(C)(C)N2Cc3cccc(C(=O)N(C)C)c3C2)ccc1O [compound 89]
6 | 9 | CC(C)COc1cc(CCC(C)(C)N2Cc3cccc(C(=O)N4CCOCC4)c3C2)ccc1O [compound 90]
7 | 6 | CC(C)COc1cc(CCC(C)(C)N2Cc3cccc(C(=O)N4CCN(C)CC4)c3C2)ccc1O [compound 91]
8 | 7 | CC(=O)N1CCN(C(=O)c2cccc3c2CN(C(C)(C)CCc2ccc(O)c(OCC(C)C)c2)C3)CC1 [compound 92]
9 | 5 | CN1CCN(C(=O)c2cccc3c2CN(C(C)(C)CCc2ccc(O)c(OC(F)(F)F)c2)C3)CC1 [compound 93]
10 | 14 | CC(C)(CCc1ccc(O)c(OC(F)(F)F)c1)N1Cc2cccc(C(=O)N3CCOCC3)c2C1 [compound 94]
11 | 27.01 | COc1cc(CCC(C)(C)N2Cc3ccc(N4CCNCC4)cc3C2)ccc1O [compound 111]

Second part, the compound before the results:

Row | Structure (SMILES) | Mouse liver microsomes, MLM t½ [min]
12 | C[C@H](CCc1ccc(O)c(OC(C)(C)C)c1)N1Cc2cccc(F)c2C1 [60B] | 8
13 | COc1cc(CC[C@@H](C)N2Cc3ccc(C(F)(F)F)cc3C2)ccc1O [compound 2] | 28
14 | C[C@H](CCc1ccc(Cl)c(Cl)c1)N1Cc2ccc(F)cc2C1.Cl [compound 12] | 13
15 | COc1ccc2c(c1)CN([C@H](C)CCc1ccc(Cl)c(Cl)c1)C2.Cl [compound 15] | 15
16 | C[C@H](CCc1ccc(Cl)c(Cl)c1)N1Cc2cccc(Cl)c2C1.Cl [compound 16] | 12
17 | COc1cc(CCC(C)N2Cc3ccc4ccccc4c3C2)ccc1O.Cl (centres unmarked) [compound 17] | 10

Molecular target: potassium channel hERG (Homo sapiens (Human), UniProt Q12809)
Test: In vitro toxicity, hERG inhibition
Type: biochemical
Settings: not given

Chain of potassium channel hERG (Q12809 whole entry): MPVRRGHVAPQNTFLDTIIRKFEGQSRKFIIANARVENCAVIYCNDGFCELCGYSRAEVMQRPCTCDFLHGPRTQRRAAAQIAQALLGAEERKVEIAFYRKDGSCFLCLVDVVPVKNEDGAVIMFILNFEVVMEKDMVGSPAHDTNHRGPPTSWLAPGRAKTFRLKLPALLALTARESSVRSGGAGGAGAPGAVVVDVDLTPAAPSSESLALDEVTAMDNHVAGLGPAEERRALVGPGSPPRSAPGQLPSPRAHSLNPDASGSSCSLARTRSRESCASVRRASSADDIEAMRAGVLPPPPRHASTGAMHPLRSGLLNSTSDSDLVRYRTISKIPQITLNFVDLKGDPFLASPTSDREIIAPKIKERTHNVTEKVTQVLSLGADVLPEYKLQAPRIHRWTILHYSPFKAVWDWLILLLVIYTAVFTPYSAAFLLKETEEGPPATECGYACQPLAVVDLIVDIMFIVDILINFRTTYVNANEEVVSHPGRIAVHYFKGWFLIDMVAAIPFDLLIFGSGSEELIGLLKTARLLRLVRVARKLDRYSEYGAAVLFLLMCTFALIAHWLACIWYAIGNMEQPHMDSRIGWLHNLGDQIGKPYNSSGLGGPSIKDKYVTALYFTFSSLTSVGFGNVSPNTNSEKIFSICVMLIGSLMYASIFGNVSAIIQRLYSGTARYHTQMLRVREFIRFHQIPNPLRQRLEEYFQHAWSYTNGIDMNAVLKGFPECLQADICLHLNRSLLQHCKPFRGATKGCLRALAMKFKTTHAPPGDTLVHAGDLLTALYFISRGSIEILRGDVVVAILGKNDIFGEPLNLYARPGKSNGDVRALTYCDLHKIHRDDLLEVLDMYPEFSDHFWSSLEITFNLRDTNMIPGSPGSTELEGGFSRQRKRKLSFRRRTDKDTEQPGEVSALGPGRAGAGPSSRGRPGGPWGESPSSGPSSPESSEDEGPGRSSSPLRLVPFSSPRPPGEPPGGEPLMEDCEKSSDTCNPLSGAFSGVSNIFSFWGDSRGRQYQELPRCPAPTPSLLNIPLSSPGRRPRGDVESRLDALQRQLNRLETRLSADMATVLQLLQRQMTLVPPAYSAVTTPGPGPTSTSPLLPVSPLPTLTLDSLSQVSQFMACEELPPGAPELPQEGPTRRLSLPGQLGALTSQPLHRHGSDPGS

Row | Structure (SMILES) | IC50 [µM]
18 | COc1cc(CC[C@@H](C)N2Cc3cc4c(cc3C2)OCO4)ccc1O [compound 6] | 0.98

Tested on: neuronal cultures
Test: Functional neuronal phenotype in neuronal cultures
Type: cell-based
Set-up: key: Antagonist: antagonists (block Abeta signaling); Agonist: agonists (block Abeta signaling with U-shaped dose-response curve and toxicity at high doses); Inactive: inactive (no effect in neuronal cultures)
Settings: not given

Row | Structure (SMILES) | neuronal phenotype
19 | C[C@H](CCc1ccc(O)c(OC(C)(C)C)c1)N1Cc2cccc(F)c2C1 [60B] | Antagonist
20 | COc1cc(CC[C@@H](C)N2Cc3ccc(C(F)(F)F)cc3C2)ccc1O [compound 2] | Antagonist
21 | COc1cc(CC[C@@H](C)N2Cc3cc4c(cc3C2)OCO4)ccc1O [compound 6] | Antagonist
22 | C[C@H](CCc1ccc(Cl)c(Cl)c1)N1Cc2ccc(F)cc2C1.Cl [compound 12] | Antagonist
23 | COc1ccc2c(c1)CN([C@H](C)CCc1ccc(Cl)c(Cl)c1)C2.Cl [compound 15] | Inactive
24 | C[C@H](CCc1ccc(Cl)c(Cl)c1)N1Cc2cccc(Cl)c2C1.Cl [compound 16] | Inactive
25 | COc1cc(CCC(C)N2Cc3ccc4ccccc4c3C2)ccc1O.Cl (centres unmarked) [compound 17] | Antagonist
26 | CC(CCc1ccc(Cl)c(Cl)c1)N1Cc2ccc3ccccc3c2C1 (centres unmarked) [compound 19] | Antagonist
27 | CC(C)(CCc1ccc(F)cc1)N1Cc2cccc(F)c2C1 [compound 33] | Antagonist
28 | COc1cc(CCC(C)(C)N2Cc3ccc(S(C)(=O)=O)cc3C2)ccc1O [compound 77] | Antagonist
29 | COc1cc(CCC(C)(C)N2Cc3ccc(N4CCNCC4)cc3C2)ccc1O [compound 111] | Inactive
30 | COc1cc(CCC(C)(C)N2Cc3cccc(F)c3C2)ccc1Cl [compound 112] | Antagonist
31 | COc1cc(CCC(C)(C)N2Cc3ccc(S(C)(=O)=O)cc3C2)ccc1Cl [compound 113] | Antagonist
32 | CC(C)(C#Cc1ccc2[nH]ncc2c1)N1Cc2cccc(C(=O)N3CCNCC3)c2C1 [compound 114] | Neuroactive
33 | CC(C)(CCc1ccc2[nH]ncc2c1)N1Cc2cccc(C(=O)N3CCNCC3)c2C1 [compound 115] | Inactive
34 | CC(C)(CCc1ccc(O)c(Cl)c1)N1Cc2ccc(S(C)(=O)=O)cc2C1 [compound 116] | Inactive
35 | CC(C)(CCc1ccc(O)c(Cl)c1)N1Cc2cccc(F)c2C1 [compound 117] | Antagonist
36 | COc1ccc(CCC(C)(C)N2Cc3cccc(C(=O)N4CCNCC4)c3C2)cc1Cl [compound 118] | Inactive

Tested on: Abeta oligomer-induced membrane trafficking deficits in primary hippocampal neurons
Test: Membrane trafficking/exocytosis (MTT) assay
Settings: read-out: Membrane Trafficking EC50; compound dosed prior to Abeta oligomer addition
Procedure: Primary hippocampal neurons from E18 Sprague-Dawley rat embryos were plated at optimized concentrations in 384 well plates in NB media (Invitrogen). Neurons were maintained in cultures for 3 weeks, with twice weekly feeding of NB media with N2 supplement (Invitrogen).
MTT reagent (3-(4,5-dimethylthizaol-2yl)-2,5diphenyl tetrazolium bromide) (Roche Molecular Biochemicals) was reconstituted in phosphate buffered saline to 5 mg/mL. 10 μL of MTT labeling reagent is added to each well and incubated at 37° C. for 1 h, then imaged. Exocytosis was assessed by automated microscopy and image processing to quantify the amount of endocytosed and exocytosed formazan.
Each assay plate was formatted so that compounds are tested with and without Abeta oligomer on each plate. […] Reduced formazan was first visible in intracellular vesicles. […] The dye precipitated in the aqueous environment of the culture and formed needle-shaped crystals on the surface of the neuron.

Row | Structure (SMILES) | EC50 [µM]
37 | C[C@H](CCc1ccc(O)c(OC(C)(C)C)c1)N1Cc2cccc(F)c2C1 [60B] | 1.6
38 | COc1cc(CC[C@@H](C)N2Cc3ccc(C(F)(F)F)cc3C2)ccc1O [compound 2] | 6.7 to 7.7
39 | COc1cc(CC[C@@H](C)N2Cc3cc4c(cc3C2)OCO4)ccc1O [compound 6] | 0.3
40 | C[C@H](CCc1ccc(Cl)c(Cl)c1)N1Cc2ccc(F)cc2C1.Cl [compound 12] | 0.4
41 | COc1ccc2c(c1)CN([C@H](C)CCc1ccc(Cl)c(Cl)c1)C2.Cl [compound 15] | 0.5
42 | C[C@H](CCc1ccc(Cl)c(Cl)c1)N1Cc2cccc(Cl)c2C1.Cl [compound 16] | > 20
43 | COc1cc(CCC(C)N2Cc3ccc4ccccc4c3C2)ccc1O.Cl (centres unmarked) [compound 17] | 0.3
44 | CC(C)(CCc1ccc(F)cc1)N1Cc2cccc(F)c2C1 [compound 33] | 3.3
45 | COc1cc(CCC(C)(C)N2Cc3ccc(S(C)(=O)=O)cc3C2)ccc1O [compound 77] | 0.1
46 | COc1cc(CCC(C)(C)N2Cc3ccc(N4CCNCC4)cc3C2)ccc1O [compound 111] | 100
47 | COc1cc(CCC(C)(C)N2Cc3cccc(F)c3C2)ccc1Cl [compound 112] | 0.26
48 | COc1cc(CCC(C)(C)N2Cc3ccc(S(C)(=O)=O)cc3C2)ccc1Cl [compound 113] | 5.3
49 | CC(C)(C#Cc1ccc2[nH]ncc2c1)N1Cc2cccc(C(=O)N3CCNCC3)c2C1 [compound 114] | 0.25
50 | CC(C)(CCc1ccc2[nH]ncc2c1)N1Cc2cccc(C(=O)N3CCNCC3)c2C1 [compound 115] | 100
51 | CC(C)(CCc1ccc(O)c(Cl)c1)N1Cc2ccc(S(C)(=O)=O)cc2C1 [compound 116] | 100
52 | CC(C)(CCc1ccc(O)c(Cl)c1)N1Cc2cccc(F)c2C1 [compound 117] | 1.2
53 | COc1ccc(CCC(C)(C)N2Cc3cccc(C(=O)N4CCNCC4)c3C2)cc1Cl [compound 118] | 100
